Laboratory results taken from patent US10899852B2, “Benzil monoketals and the use thereof” (Merck Patent GmbH, priority 2015, dated 2021).

Assay: storage test of polymerisable liquid-crystal mixture P-1 with sealant containing photoinitiator, then UV irradiation in PS-VA test cells; RM-1 concentration by HPLC
Settings: inferred from RM-1 polymerisation after storage 7 d at 80° C.
Experimental: A polymerisable liquid-crystal mixture P-1 consisting of • 1. 99.7% by weight of the nematic liquid-crystal mixture M-1 and • 2. 0.3% by weight of the polymerisable compound RM-1
[drawing 37] is prepared. Three samples of in each case 0.5 g of mixture P-1 are stored together with in each case 1 g of the commercially available sealant Unocol 2094® (APM Technica GmbH, Pürgen-Ummendorf), the latter in each case containing • 1. no photoinitiator • 2. 3.0% by weight of the photoinitiator according to the invention from Example 1 • 3. 3.0% by weight of the commercially available photoinitiator Irgacure651® of the structure shown below in a tightly sealed vial at 80° C. for 7 d with exclusion of air and light. A fourth sample of mixture P-1 is stored under the same conditions without the presence of sealant (blank experiment).
The mixtures are subsequently separated off from the sealant, in each case divided into two parts, introduced into PS-VA test cells and irradiated with a metal halide UV lamp with an intensity of 100 mW/cm^2 at 40° C. for a duration of 60 s or 180 s.
The PS-VA test cells consist of two plane-parallel glass plates having a cell gap of 4 μm, each of which are coated with an ITO electrode and with a polyimide alignment layer on top.
After the irradiation, the concentration of the polymerisable compound RM-1 is determined by HPLC.

| Compound | photoinitiator dissolved out of the sealant into the liquid crystal during the storage test |
| --- | --- |
| COC(OC)(C(=O)c1ccccc1)c1ccccc1 [Irgacure651®] | considerable amounts of photoinitiator have dissolved in the liquid-crystal mixture |
| COC(OC)(C(=O)c1ccc(OCC(O)CO)cc1)c1ccc(OCC(O)CO)cc1 (centres unmarked) [Example 1, 1,2-Bis[4-(2,3-dihydroxypropoxy)phenyl]-2,2-dimethoxyethanone] | no photoinitiator according to the invention has been dissolved out of the sealant |
